# Species: Rattus norvegicus
# Test: Open TG-GATES - Regimen: Single
# Assay type: toxicity, organism-based, Sprague-Dawley
# Parameters: regimen Single, gender Male, age 6 weeks
# Conditions: in vivo, po, 1 mg/kg, route gavage, dose level Low; for APTT / Bas / Eos / Fbg / Hb / Ht / Lym / MCH / MCHC / MCV / Mono / Neu / PT / Plat / RBC / Ret / WBC: tissue Blood; for KIDNEY_L / KIDNEY_R / KIDNEY_TOTAL: tissue Kidney; for LIVER: tissue Liver; for A/G / ALP / ALT / AST / BUN / CRE / Ca / Cl / DBIL / GLC / IP / K / LDH / Na / PL / RALB / TBIL / TC / TG / TP / gamma-GTP: tissue Plasma
compound,measurement,setting,value
O=NN(CCCl)C(=O)NC1CCCCC1 [LOMUSTINE],TERMINAL_BW,3 h,204.1 g
same,APTT,3 h,16.5 s
same,Bas,3 h,0%
same,Eos,3 h,0.2%
same,Fbg,3 h,224.2 mg/dL
same,Hb,3 h,13.4 g/dL
same,Ht,3 h,40.4%
same,Lym,3 h,78.8%
same,MCH,3 h,21.6 pg
same,MCHC,3 h,33.2%
same,MCV,3 h,65.2 fL
same,Mono,3 h,8.4%
same,Neu,3 h,12.2%
same,PT,3 h,11.3 s
same,Plat,3 h,105.5 x10_4/uL
same,RBC,3 h,619 x10_4/ul
same,Ret,3 h,8.6%
same,WBC,3 h,119.1 x10_2/uL
same,KIDNEY_L,3 h,0.9 g
same,KIDNEY_R,3 h,0.9 g
same,KIDNEY_TOTAL,3 h,1.9 g
same,LIVER,3 h,9.6 g
same,A/G,3 h,2
same,ALP,3 h,970.8 IU/L
same,ALT,3 h,33.4 IU/L
same,AST,3 h,60 IU/L
same,BUN,3 h,11 mg/dL
same,CRE,3 h,0.5 mg/dL
same,Ca,3 h,11.4 mg/dL
same,Cl,3 h,105.8 meq/L
same,DBIL,3 h,0.028 mg/dL
same,GLC,3 h,184.2 mg/dL
same,IP,3 h,10 mg/dL
same,K,3 h,4.8 meq/L
same,LDH,3 h,82.2 IU/L
same,Na,3 h,139.8 meq/L
same,PL,3 h,135.8 mg/dL
same,RALB,3 h,3.7 g/dL
same,TBIL,3 h,0.3 mg/dL
same,TC,3 h,79 mg/dL
same,TG,3 h,52.4 mg/dL
same,TP,3 h,5.6 g/dL
same,gamma-GTP,3 h,1.4 IU/L
same,TERMINAL_BW,6 h,203.2 g
same,APTT,6 h,16.9 s
same,Bas,6 h,0%
same,Eos,6 h,0.4%
same,Fbg,6 h,227.8 mg/dL
same,Hb,6 h,13.4 g/dL
same,Ht,6 h,40.2%
same,Lym,6 h,82%
same,MCH,6 h,21.8 pg
same,MCHC,6 h,33.3%
same,MCV,6 h,65.6 fL
same,Mono,6 h,5.8%
same,Neu,6 h,11.8%
same,PT,6 h,12.2 s
same,Plat,6 h,96.8 x10_4/uL
same,RBC,6 h,613.2 x10_4/ul
same,Ret,6 h,9%
same,WBC,6 h,116.2 x10_2/uL
same,KIDNEY_L,6 h,0.9 g
same,KIDNEY_R,6 h,0.9 g
same,KIDNEY_TOTAL,6 h,1.9 g
same,LIVER,6 h,9 g
same,A/G,6 h,2
same,ALP,6 h,759.8 IU/L
same,ALT,6 h,33.2 IU/L
same,AST,6 h,66.6 IU/L
same,BUN,6 h,11.2 mg/dL
same,CRE,6 h,0.5 mg/dL
same,Ca,6 h,10.9 mg/dL
same,Cl,6 h,104.6 meq/L
same,DBIL,6 h,0.008 mg/dL
same,GLC,6 h,188.6 mg/dL
same,IP,6 h,10.5 mg/dL
same,K,6 h,5.1 meq/L
same,LDH,6 h,90.2 IU/L
same,Na,6 h,140.8 meq/L
same,PL,6 h,142.8 mg/dL
same,RALB,6 h,3.7 g/dL
same,TBIL,6 h,0.2 mg/dL
same,TC,6 h,84 mg/dL
same,TG,6 h,41.2 mg/dL
same,TP,6 h,5.5 g/dL
same,gamma-GTP,6 h,1.4 IU/L
same,TERMINAL_BW,9 h,200.6 g
same,APTT,9 h,16.5 s
same,Bas,9 h,0%
same,Eos,9 h,0.6%
same,Fbg,9 h,220.2 mg/dL
same,Hb,9 h,13.3 g/dL
same,Ht,9 h,40.4%
same,Lym,9 h,78.6%
same,MCH,9 h,21.9 pg
same,MCHC,9 h,32.9%
same,MCV,9 h,66.4 fL
same,Mono,9 h,6.6%
same,Neu,9 h,14.2%
same,PT,9 h,12.4 s
same,Plat,9 h,99.4 x10_4/uL
same,RBC,9 h,608 x10_4/ul
same,Ret,9 h,9%
same,WBC,9 h,86.7 x10_2/uL
same,KIDNEY_L,9 h,0.9 g
same,KIDNEY_R,9 h,0.9 g
same,KIDNEY_TOTAL,9 h,1.8 g
same,LIVER,9 h,8.6 g
same,A/G,9 h,2.5
same,ALP,9 h,787 IU/L
same,ALT,9 h,32 IU/L
same,AST,9 h,62.6 IU/L
same,BUN,9 h,8.8 mg/dL
same,CRE,9 h,0.5 mg/dL
same,Ca,9 h,10.6 mg/dL
same,Cl,9 h,105.8 meq/L
same,DBIL,9 h,0.036 mg/dL
same,GLC,9 h,184.6 mg/dL
same,IP,9 h,10.2 mg/dL
same,K,9 h,4.6 meq/L
same,LDH,9 h,76.6 IU/L
same,Na,9 h,138.4 meq/L
same,PL,9 h,127.4 mg/dL
same,RALB,9 h,3.9 g/dL
same,TBIL,9 h,0.4 mg/dL
same,TC,9 h,72.4 mg/dL
same,TG,9 h,39 mg/dL
same,TP,9 h,5.5 g/dL
same,gamma-GTP,9 h,4.2 IU/L
same,TERMINAL_BW,24 h,218.5 g
same,APTT,24 h,18.1 s
same,Bas,24 h,0%
same,Eos,24 h,1%
same,Fbg,24 h,201 mg/dL
same,Hb,24 h,12.6 g/dL
same,Ht,24 h,37.9%
same,Lym,24 h,80.8%
same,MCH,24 h,21.8 pg
same,MCHC,24 h,33.4%
same,MCV,24 h,65.3 fL
same,Mono,24 h,5.8%
same,Neu,24 h,12.6%
same,PT,24 h,12.2 s
same,Plat,24 h,94.4 x10_4/uL
same,RBC,24 h,580.2 x10_4/ul
same,Ret,24 h,9%
same,WBC,24 h,138.2 x10_2/uL
same,KIDNEY_L,24 h,1 g
same,KIDNEY_R,24 h,1 g
same,KIDNEY_TOTAL,24 h,2 g
same,LIVER,24 h,10.7 g
same,A/G,24 h,2.2
same,ALP,24 h,961 IU/L
same,ALT,24 h,37.6 IU/L
same,AST,24 h,68.4 IU/L
same,BUN,24 h,15.8 mg/dL
same,CRE,24 h,0.5 mg/dL
same,Ca,24 h,11.1 mg/dL
same,Cl,24 h,104.6 meq/L
same,DBIL,24 h,0.018 mg/dL
same,GLC,24 h,185.4 mg/dL
same,IP,24 h,7.6 mg/dL
same,K,24 h,4.8 meq/L
same,LDH,24 h,100.6 IU/L
same,Na,24 h,138 meq/L
same,PL,24 h,144.6 mg/dL
same,RALB,24 h,3.9 g/dL
same,TBIL,24 h,0.3 mg/dL
same,TC,24 h,76 mg/dL
same,TG,24 h,98 mg/dL
same,TP,24 h,5.7 g/dL
same,gamma-GTP,24 h,1.8 IU/L

# Source: ChEMBL document CHEMBL3885861, “Open TG-GATES”
